Results: PubChem BioAssay AID248 (DTP/NCI, 2004)
Inconclusive results and toxic doses are left out. Rule as the data show it: active = T/C of 150% or more; inactive = T/C below 125%.

Tested on: L1210 leukemia ip in BDF1 mice, survival T/C
Test: NCI In Vivo Anticancer Drug Screen. Data for tumor model L1210 Leukemia (intraperitoneal) in B6D2F1 (BDF1) mice
Conditions: endpoint: mean survival time, higher = longer survival
Procedure, shortened: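 Tumor cells were implanted, animals were treated, and survival was followed. The result divides the treated measurement by the vehicle-control measurement.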

[1] = dose: 100.0 mg/kg/injection, schedule: Q01DX001 (ip), vehicle: saline
[2] = dose: 100.0 mg/kg/injection, schedule: Q01DX009 (ip), vehicle: saline
[3] = dose: 100.0 mg/kg/injection, schedule: Q04DX003 (ip), vehicle: saline
[4] = dose: 200.0 mg/kg/injection, schedule: Q01DX001 (ip), vehicle: saline
[5] = dose: 200.0 mg/kg/injection, schedule: Q01DX009 (ip), vehicle: saline
[6] = dose: 200.0 mg/kg/injection, schedule: Q04DX003 (ip), vehicle: saline
[7] = dose: 400.0 mg/kg/injection, schedule: Q01DX001 (ip), vehicle: saline
[8] = dose: 400.0 mg/kg/injection, schedule: Q01DX009 (ip), vehicle: saline
[9] = dose: 400.0 mg/kg/injection, schedule: Q04DX003 (ip), vehicle: saline
[10] = dose: 100.0 mg/kg/injection, schedule: Q01DX009 (ip), vehicle: Klucel (hydroxypropylcellulose) (HPC)
[11] = dose: 200.0 mg/kg/injection, schedule: Q01DX009 (ip), vehicle: Klucel (hydroxypropylcellulose) (HPC)
[12] = dose: 400.0 mg/kg/injection, schedule: Q01DX009 (ip), vehicle: Klucel (hydroxypropylcellulose) (HPC)
[13] = dose: 100.0 mg/kg/injection, schedule: Q04DX003 (ip), vehicle: Klucel (hydroxypropylcellulose) (HPC)
[14] = dose: 200.0 mg/kg/injection, schedule: Q04DX003 (ip), vehicle: Klucel (hydroxypropylcellulose) (HPC)
[15] = dose: 400.0 mg/kg/injection, schedule: Q04DX003 (ip), vehicle: Klucel (hydroxypropylcellulose) (HPC)
[16] = dose: 100.0 mg/kg/injection, schedule: Q01DX001 (ip), vehicle: saline with Tween-80
[17] = dose: 200.0 mg/kg/injection, schedule: Q01DX001 (ip), vehicle: saline with Tween-80

Measured: T/C

O=C1NC(=O)C(c2ccccc2)(c2ccc(Cl)cc2Cl)N1 (configuration not stated)
inactive: dose: 100.0 mg/kg/injection, schedule: Q01DX001 (ip), vehicle: carboxymethylcellulose (CMC) 100 % of control | [1] 121 % of control | [2] 90 % of control | [3] 86 % of control | dose: 200.0 mg/kg/injection, schedule: Q01DX001 (ip), vehicle: carboxymethylcellulose (CMC) 110 % of control | [4] 97 % of control | [5] 87 % of control | [6] 102 % of control | dose: 400.0 mg/kg/injection, schedule: Q01DX001 (ip), vehicle: carboxymethylcellulose (CMC) 105 % of control | [7] 95 % of control | [8] 89 % of control | [9] 93 % of control

Cc1ccc(/C(C#N)=C/c2cccc([N+](=O)[O-])c2)cc1
inactive: dose: 100.0 mg/kg/injection, schedule: Q04DX002 (ip), vehicle: saline with Tween-80 95 % of control | dose: 200.0 mg/kg/injection, schedule: Q04DX002 (ip), vehicle: saline with Tween-80 88 % of control | dose: 400.0 mg/kg/injection, schedule: Q04DX002 (ip), vehicle: saline with Tween-80 98 % of control

COC(=O)C(CCC(=O)OC(C)(C)C)NC(=O)C(F)(F)F (configuration not stated)
inactive: dose: 50.0 mg/kg/injection, schedule: Q01DX001 (ip), vehicle: Klucel (hydroxypropylcellulose) (HPC) 94 % of control | dose: 100.0 mg/kg/injection, schedule: Q01DX001 (ip), vehicle: Klucel (hydroxypropylcellulose) (HPC) 100 % of control | dose: 200.0 mg/kg/injection, schedule: Q01DX001 (ip), vehicle: Klucel (hydroxypropylcellulose) (HPC) 97 % of control

c1ccc(C/C(N=Nc2ccccc2)=N\Nc2ccccc2)cc1
inactive: dose: 50.0 mg/kg/injection, schedule: Q01DX009 (ip), vehicle: Klucel (hydroxypropylcellulose) (HPC) 92 % of control | [10] 92 % of control | [11] 91 % of control | [12] 105 % of control

Cc1ccc(NC(=O)c2ccccc2Cl)cc1Cl
inactive: dose: 25.0 mg/kg/injection, schedule: Q04DX004 (ip), vehicle: Klucel (hydroxypropylcellulose) (HPC) 89 % of control | dose: 50.0 mg/kg/injection, schedule: Q04DX004 (ip), vehicle: Klucel (hydroxypropylcellulose) (HPC) 98 % of control | [10] 96 % of control | [2] 110 % of control | [13] 95 % of control | [3] 120 % of control | dose: 100.0 mg/kg/injection, schedule: Q04DX004 (ip), vehicle: Klucel (hydroxypropylcellulose) (HPC) 88 % of control | dose: 135.0 mg/kg/injection, schedule: Q04DX004 (ip), vehicle: Klucel (hydroxypropylcellulose) (HPC) 96 % of control | [11] 94 % of control | [5] 102 % of control | [14] 95 % of control | [12] 98 % of control | [8] 102 % of control | [15] 96 % of control | [9] 115 % of control

CCCCCCCCCCCCc1ccc(CSC(C(=O)OC)C(SCc2ccc(CCCCCCCCCCCC)cc2)C(=O)OC)cc1 (configuration not stated)
inactive: [3] 103 % of control | [6] 101 % of control | [9] 94 % of control

CCCCOC1CCS(=O)(=O)C1 (configuration not stated)
inactive: dose: 100.0 mg/kg/injection, schedule: Q04DX003 (ip), vehicle: other 101 % of control | dose: 200.0 mg/kg/injection, schedule: Q04DX003 (ip), vehicle: other 101 % of control | dose: 400.0 mg/kg/injection, schedule: Q04DX003 (ip), vehicle: other 94 % of control

COc1ccc(C(O)c2c(CN(C)C)c3ccccc3n2C)cc1 (configuration not stated)
inactive: dose: 100.0 mg/kg/injection, schedule: Q04DX002 (ip), vehicle: other 106 % of control

O=[N+]([O-])c1ccc(C(=Nc2ccccc2)Nc2ccccc2)cc1
inactive: dose: 100.0 mg/kg/injection, schedule: Q04DX003 (ip), vehicle: saline with Tween-80 101 % of control | dose: 200.0 mg/kg/injection, schedule: Q04DX003 (ip), vehicle: saline with Tween-80 98 % of control | dose: 400.0 mg/kg/injection, schedule: Q04DX003 (ip), vehicle: saline with Tween-80 98 % of control

COc1ccc(-n2c(=O)c(N=Nc3ccccc3C)c(O)n(-c3ccccc3C)c2=S)cc1
inactive: dose: 37.5 mg/kg/injection, schedule: Q01DX001 (ip), vehicle: Klucel (hydroxypropylcellulose) (HPC) 100 % of control | dose: 75.0 mg/kg/injection, schedule: Q01DX001 (ip), vehicle: Klucel (hydroxypropylcellulose) (HPC) 97 % of control | dose: 150.0 mg/kg/injection, schedule: Q01DX001 (ip), vehicle: Klucel (hydroxypropylcellulose) (HPC) 100 % of control

CN(C)N=Nc1ccc(Cl)cc1
inactive: dose: 37.5 mg/kg/injection, schedule: Q04DX003 (ip), vehicle: saline with Tween-80 96 % of control | dose: 50.0 mg/kg/injection, schedule: Q01DX001 (ip), vehicle: saline with Tween-80 106 % of control | dose: 50.0 mg/kg/injection, schedule: Q01DX009 (ip), vehicle: saline with Tween-80 86 % of control | dose: 75.0 mg/kg/injection, schedule: Q04DX003 (ip), vehicle: saline with Tween-80 97 % of control | [16] 104 % of control | [1] 103 % of control | dose: 100.0 mg/kg/injection, schedule: Q01DX009 (ip), vehicle: saline with Tween-80 87 % of control | dose: 150.0 mg/kg/injection, schedule: Q04DX003 (ip), vehicle: saline with Tween-80 104 % of control | [17] 113 % of control | [4] 107 % of control | dose: 200.0 mg/kg/injection, schedule: Q01DX009 (ip), vehicle: saline with Tween-80 90 % of control | dose: 300.0 mg/kg/injection, schedule: Q04DX003 (ip), vehicle: saline with Tween-80 108 % of control | [7] 97 % of control | dose: 400.0 mg/kg/injection, schedule: Q01DX009 (ip), vehicle: saline with Tween-80 91 % of control

COc1ccc(C2(OC)Oc3cc(OC)ccc3-c3nc4ccccc4nc32)cc1 (configuration not stated)
inactive: dose: 50.0 mg/kg/injection, schedule: Q01DX001 (ip), vehicle: saline 101 % of control | [1] 101 % of control | [4] 95 % of control | [7] 101 % of control

Cn1c(CC(O)(C(F)(F)F)C(F)(F)F)ccc1CC(O)(C(F)(F)F)C(F)(F)F
inactive: dose: 100.0 mg/kg/injection, schedule: Q01DX001 (ip), vehicle: gum acacia 107 % of control | dose: 200.0 mg/kg/injection, schedule: Q01DX001 (ip), vehicle: gum acacia 103 % of control | dose: 400.0 mg/kg/injection, schedule: Q01DX001 (ip), vehicle: gum acacia 98 % of control

Nc1cc(Sc2ccc(Cl)cc2)nc(N)n1
inactive: [16] 100 % of control | [17] 100 % of control | dose: 400.0 mg/kg/injection, schedule: Q01DX001 (ip), vehicle: saline with Tween-80 100 % of control

CC1(C)CC(=NNC2=NC=NC3=NC=NC32)CC(C)(C)N1O (configuration not stated)
inactive: dose: 25.0 mg/kg/injection, schedule: Q04DX003 (ip), vehicle: saline 98 % of control | dose: 50.0 mg/kg/injection, schedule: Q04DX003 (ip), vehicle: saline 102 % of control | [3] 102 % of control

COC(=O)C1(C)CCC(c2ccc(C)cc2)=C(CC(=O)O)C1 (configuration not stated)
inactive: [2] 115 % of control | [3] 100 % of control | [5] 97 % of control | [6] 96 % of control | [8] 95 % of control | [9] 115 % of control

CCOC(=O)C(OCc1ccccc1)(C(=O)OCC)C(C)C
inactive: [2] 97 % of control | [3] 96 % of control | [5] 101 % of control | [6] 102 % of control | [8] 106 % of control | [9] 108 % of control

Cc1ccc(C)c(C(O)C(=O)O)c1 (configuration not stated)
inactive: dose: 75.0 mg/kg/injection, schedule: Q01DX001 (ip), vehicle: acetone 101 % of control | dose: 150.0 mg/kg/injection, schedule: Q01DX001 (ip), vehicle: acetone 98 % of control | dose: 300.0 mg/kg/injection, schedule: Q01DX001 (ip), vehicle: acetone 95 % of control

CC1CC1C(N)=O (configuration not stated)
inactive: dose: 100.0 mg/kg/injection, schedule: Q04DX002 (ip), vehicle: saline 97 % of control | dose: 200.0 mg/kg/injection, schedule: Q04DX002 (ip), vehicle: saline 110 % of control

Cc1cc(C)c(C)c(NCCCS(=O)(=O)O)c1C
inactive: [13] 98 % of control | [14] 102 % of control | [15] 100 % of control
